US4943566A, “Novel 17-aryl-steroids” (Roussel Uclafi, priority 1987, dated 1990)

Experiments:
[1] = tested on: mammary Tumoral cells MCF-7; assay: Anti-proliferative activity against the increase of mammary tumoral cells MCF-7 (ADN by DABA fluorimetry); type: cell-based; details: Homo sapiens, MCF7, 144 h; MCF-7 cells, SVF medium, 6 days, ADN content; read-out: CI50 in nM (concentration which inhibits by 50% the increase in the MCF 7 cells)
Description: The cell culture line MCF-7 was maintained in culture in SVF (1) medium at 37° C. in a humid atmosphere containing 5% CO2. The cells at subconfluence were collected by trypsination (0.05% trypsine, 0.02% EDTA) then rinsed by gentle centrifiguation. A sample of the cells in suspension was counted by the Malassez cell. To study the increase, the cells resuspended in SVF medium were innoculated at a rate of 30,000 cells per well in a multiwell plate (24 wells per 2.5 cm^2) 24 hours after the innoculation (Day 0), the test compound was added to the medium in an ethanolic solution (final ethanol concentration is 0.1%) a concentration of 10^-6 M. The control wells received the same concentration of ethanol. The mediums were totally renewed at 48 hours. At the end of the experiment (Day 6), the medium was aspirated and the cells were immediately fixed by 150 μl of methanol after a dose of ADN. The anti-proliferative activity of the products was determined by the capacity to inhibit ADN increase.
ADN is dosed by a fluorimetric method using DABA (3,5-diamino benzoic acid). 150 μl of DABA was added to each well and the plates were incubated for 45 minutes at 56° C. and then 1.5 ml of 1N hydrochloric acid was added. The fluoresence was measured with a fluorimeter (excitement length 400 nM-length of emission wave 500 nM). The amount of ADN per well was evaluated with respect to a standard scale obtained by treating under the same conditions an ADN standard of the calf thymus. The concentration in nM which inhibit by 50% the increase in the MCF 7 cells or CI50 was determined in the same manner with the results of the following Table.
The medium for culture of calf fetal serum (SVF) was prepared as follows: MEM medium (minimal essential medium) to which was added non-essential amino acids (GIBCO), peni-strepto (penicillin 100 U/ml, streptomycine 0.1 mg/ml), 0.1% fungizone, 50 ng/ml of insulin and a 10% final concentration of calf fetal serum free of endrogenic steroids.

[2] = biological target: T1, glucocorticoid receptor, rat thymus (Rattus norvegicus, UniProt P06536); assay: Relative binding affinity (ARL), glucocorticoid receptor of rat thymus; details: rat thymus cytosol, tritiated dexamethasone, cold reference dexamethasone; for relative affinity of the bond (ARL), Glucocorticoid, 2H: incubation 2H at 0° C.; for relative affinity of the bond (ARL), Glucocorticoid, 24H: incubation 24H at 0° C.
T1 construct: The second test was a glucocrticoid receptor test on rat thymus; from tissue; host or cells: thymus of adrenalectomized male Sprague Dawley EOPS rats, 105,000 g supernatant (cytosol)
T1 sequence (P06536 1-795): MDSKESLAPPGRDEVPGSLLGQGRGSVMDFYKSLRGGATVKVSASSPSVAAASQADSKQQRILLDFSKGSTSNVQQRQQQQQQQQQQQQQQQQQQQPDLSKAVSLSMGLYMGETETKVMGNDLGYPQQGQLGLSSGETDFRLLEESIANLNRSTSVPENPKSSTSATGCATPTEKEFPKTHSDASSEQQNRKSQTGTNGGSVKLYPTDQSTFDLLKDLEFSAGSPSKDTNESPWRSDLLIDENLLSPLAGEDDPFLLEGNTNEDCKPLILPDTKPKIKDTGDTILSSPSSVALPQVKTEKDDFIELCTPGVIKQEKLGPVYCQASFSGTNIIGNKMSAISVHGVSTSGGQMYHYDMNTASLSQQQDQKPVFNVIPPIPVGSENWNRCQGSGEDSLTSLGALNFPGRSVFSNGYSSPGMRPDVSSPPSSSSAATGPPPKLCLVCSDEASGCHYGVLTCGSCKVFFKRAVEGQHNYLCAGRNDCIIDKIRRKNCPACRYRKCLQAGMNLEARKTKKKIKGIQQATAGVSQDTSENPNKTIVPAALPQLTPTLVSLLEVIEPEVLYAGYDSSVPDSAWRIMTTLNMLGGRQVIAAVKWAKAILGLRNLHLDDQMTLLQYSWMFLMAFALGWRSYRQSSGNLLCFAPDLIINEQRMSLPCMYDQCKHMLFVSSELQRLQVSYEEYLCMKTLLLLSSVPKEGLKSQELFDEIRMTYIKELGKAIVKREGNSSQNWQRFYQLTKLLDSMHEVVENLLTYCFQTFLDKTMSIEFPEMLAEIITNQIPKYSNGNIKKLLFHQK
Description: The second test was a glucocrticoid receptor test on rat thymus in which male rats of the Sprague Dawley EOPS strain weighing 160 to 200 g were surrenalectomized. 4 to 8 days after this ablation, the animals were killed and the thymus was removed and homogenized at 0° C. in a buffered TS solution. (Tris 10 mM, 0.25M saccharose, 2 mM dithiothreitol, HCl pH 7.4) with a Potter tetrafluoroethylene-glass (1 g of tissue per 10 ml/TS). The homogenate was ultracentrifuged at 105,000 for 90 minutes at 0° C. and the surnageant samples were incubated at 0° C. for a time t with a constant concentration T of tritiated dexamethasone in the presence of increasing concentrations (0-2500×10^-9 M) or cold dexamethasone or cold test compound. The concentration B of bound tritiated dexamethasone was measured for each incubate by carbon-dextran absorption technique.
The relative affinity of the bond (ARL) was calculated in the same for the receptors. One traced the following 2 curves: the percentage of bond tritiated hormone B/T as a logarithmic function of the concentration of the cold reference hormone and B/T as a logarithmic function of the concentration of the cold test compound. Using the equation [formula] B/T max.=% of bound tritiated hormone for one incubation of tritiated hormone at concentration (T)
B/T min.=% of bound tritiated hormone for one incubation of tritiated hormone at a concentration T in the presence of a great excess of cold hormone (2500×10^-9 M).
The intersections of I50 lines and the curves permit an evaluation of the hormone concentration of the cold reference (CH) and the cold test compound (CX) which inhibited by 50% the bounding of tritiated hormone to the receptor. The ARL of the test compound was determined by the equation. [formula] and the following results were obtained.

| SMILES | IC50 [1] [nM] | relative affinity of the bond (ARL), Glucocorticoid, 2H [2] | relative affinity of the bond (ARL), Glucocorticoid, 24H [2] |
| --- | --- | --- | --- |
| CN(C)c1ccc([C@H]2C[C@@]3(C)[C@@H](CC[C@@]3(O)c3ccc(N(C)C)cc3)[C@@H]3CCC4=CC(=O)CCC4=C32)cc1 [Example 2, 11β,17α-bis-(4-dimethylamino-phenyl)-Δ^4,9-estradiene-17β-ol-3-one] | 500 | 61 | 58 |
| COc1ccc([C@]2(O)CC[C@H]3[C@@H]4CCC5=CC(=O)CCC5=C4[C@@H](c4ccc(N(C)C)cc4)C[C@@]32C)cc1 [Example 4, 11β-(4-dimethylamino-phenyl)-17α-(4-methoxy-phenyl)-Δ^4,9-estradiene-17β-ol-3-one] | 400 | 65 | 69 |
